Experimental data from paper PMC6019134, “1,2,6-Thiadiazinones as Novel Narrow Spectrum Calcium/Calmodulin-Dependent Protein Kinase Kinase 2 (CaMKK2) Inhibitors” (Molecules : A Journal of Synthetic Chemistry and Natural …, 2018).

Legend:
Test in all cases: DSF thermal shift, kinase panel
Format in all cases: binding
Settings in all cases: 10 μM compound
[1] = target: T1, VRK1 (Homo sapiens, UniProt Q99986)
T1 construct: TEV-cleavable (cleaved yes); made in house; host or cells: E. coli
T1 sequence (Q99986 1-396): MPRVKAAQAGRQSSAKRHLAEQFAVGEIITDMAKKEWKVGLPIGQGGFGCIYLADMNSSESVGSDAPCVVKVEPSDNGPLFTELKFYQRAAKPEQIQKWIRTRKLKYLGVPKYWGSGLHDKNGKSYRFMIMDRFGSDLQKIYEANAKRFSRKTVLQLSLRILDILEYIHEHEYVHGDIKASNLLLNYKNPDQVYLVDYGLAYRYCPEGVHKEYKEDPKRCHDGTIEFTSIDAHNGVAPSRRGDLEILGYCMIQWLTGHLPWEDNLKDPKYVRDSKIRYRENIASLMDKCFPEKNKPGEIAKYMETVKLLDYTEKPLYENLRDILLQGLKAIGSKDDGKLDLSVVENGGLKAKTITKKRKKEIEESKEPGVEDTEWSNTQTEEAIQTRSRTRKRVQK
In short: (§1)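 Compounds were screened at 10 µM by differential scanning fluorimetry against 1 µM purified kinase in buffered glycerol/NaCl with fluorescent dye. Melting curves, recorded during a 0.05 °C/s ramp to 95 °C, were fitted to a Boltzmann function to give dTm.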

[2] = target: T2, STK3 (Homo sapiens, UniProt Q13188)
T2 construct: purchased in-house (home-made panel, SGC-style construct names)
T2 sequence (Q13188 1-491): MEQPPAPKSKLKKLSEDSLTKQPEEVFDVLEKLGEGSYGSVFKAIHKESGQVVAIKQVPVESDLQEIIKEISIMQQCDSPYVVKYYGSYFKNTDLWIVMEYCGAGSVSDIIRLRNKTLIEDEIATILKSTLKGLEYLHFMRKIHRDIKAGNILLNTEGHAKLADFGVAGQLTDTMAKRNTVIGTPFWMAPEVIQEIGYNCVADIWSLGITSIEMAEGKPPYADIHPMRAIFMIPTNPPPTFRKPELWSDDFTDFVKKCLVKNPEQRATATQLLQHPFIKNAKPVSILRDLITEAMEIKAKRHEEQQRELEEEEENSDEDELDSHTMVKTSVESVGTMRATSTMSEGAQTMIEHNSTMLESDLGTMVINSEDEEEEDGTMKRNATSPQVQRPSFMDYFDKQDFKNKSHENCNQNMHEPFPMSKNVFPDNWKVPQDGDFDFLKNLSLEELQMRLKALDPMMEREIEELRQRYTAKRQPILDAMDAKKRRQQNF
In short: as §1

[3] = target: T3, BMXA (Homo sapiens, UniProt P51813)
T3 construct: purchased in-house (home-made panel, SGC-style construct names)
T3 sequence (P51813 1-675): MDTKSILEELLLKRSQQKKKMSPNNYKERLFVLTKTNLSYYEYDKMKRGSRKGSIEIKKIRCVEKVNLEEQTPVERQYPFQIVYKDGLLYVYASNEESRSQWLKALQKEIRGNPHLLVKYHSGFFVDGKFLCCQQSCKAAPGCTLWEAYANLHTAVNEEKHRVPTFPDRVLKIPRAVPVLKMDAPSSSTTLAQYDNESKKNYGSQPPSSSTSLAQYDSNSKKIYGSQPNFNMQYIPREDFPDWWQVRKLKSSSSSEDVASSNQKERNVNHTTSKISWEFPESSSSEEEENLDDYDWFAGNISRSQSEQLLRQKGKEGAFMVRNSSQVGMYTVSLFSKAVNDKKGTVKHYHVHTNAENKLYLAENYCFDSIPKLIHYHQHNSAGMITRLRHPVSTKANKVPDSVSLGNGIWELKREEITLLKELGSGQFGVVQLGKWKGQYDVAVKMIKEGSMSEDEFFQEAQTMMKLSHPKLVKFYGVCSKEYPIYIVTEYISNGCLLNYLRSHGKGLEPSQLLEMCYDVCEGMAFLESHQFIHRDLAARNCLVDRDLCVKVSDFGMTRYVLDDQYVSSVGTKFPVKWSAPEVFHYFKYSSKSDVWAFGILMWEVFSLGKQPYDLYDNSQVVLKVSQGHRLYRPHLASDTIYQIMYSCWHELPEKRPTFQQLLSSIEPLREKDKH
In short: as §1

[4] = target: T4, CAMKK1 (Homo sapiens, UniProt Q8N5S9)
T4 construct: purchased in-house (home-made panel, SGC-style construct names)
In short: as §1

T4 sequence (Q8N5S9 whole entry): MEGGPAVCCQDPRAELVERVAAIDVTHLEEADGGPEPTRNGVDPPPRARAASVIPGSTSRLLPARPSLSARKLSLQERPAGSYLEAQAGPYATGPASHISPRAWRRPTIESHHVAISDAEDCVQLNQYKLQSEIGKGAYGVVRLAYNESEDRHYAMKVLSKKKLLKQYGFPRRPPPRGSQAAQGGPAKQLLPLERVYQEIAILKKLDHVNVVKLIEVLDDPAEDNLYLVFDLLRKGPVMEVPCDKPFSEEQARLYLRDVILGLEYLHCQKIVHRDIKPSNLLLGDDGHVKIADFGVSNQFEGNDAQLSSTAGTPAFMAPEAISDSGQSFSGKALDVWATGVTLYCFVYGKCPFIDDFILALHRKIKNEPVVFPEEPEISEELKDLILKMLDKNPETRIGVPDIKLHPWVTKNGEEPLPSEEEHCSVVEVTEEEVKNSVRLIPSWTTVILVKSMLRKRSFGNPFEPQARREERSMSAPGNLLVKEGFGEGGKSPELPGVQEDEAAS

Row | SMILES | ΔTm at 10 µM [1] | ΔTm at 10 µM [2] | ΔTm at 10 µM [3] | ΔTm at 10 µM [4]
1 | Cc1ccc(Nc2nsnc(Nc3ccc4c(c3)CS(=O)(=O)C4)c2=O)cc1O [Compound 3, 3-[(2,2-Dioxido-1,3-dihydrobenzo[c]thiophen-5-yl)amino]-5-[(3-hydroxy-4-methylphenyl)amino]-4H-1,2,6-thiadiazin-4-one] | -0.2 °C | 1.1 °C | 0 °C | 1.4 °C
2 | CNC(=O)c1ccccc1Nc1nsnc(Nc2ccc(N3CCOCC3)cc2)c1=O [Compound 5, N-Methyl-2-({5-[(4-morpholinophenyl)amino]-4-oxo-4H-1,2,6-thiadiazin-3-yl}amino)benzamide] | -0.3 °C | -0.3 °C | 0 °C | -0.4 °C
3 | CNC(=O)c1ccccc1Nc1nsnc(Nc2cccc(CS(C)(=O)=O)c2)c1=O [Compound 4, N-Methyl-2-([5-({3-[(methylsulfonyl)methyl]phenyl}amino)-4-oxo-4H-1,2,6-thiadiazin-3-yl]-amino}-benzamide] | -0.3 °C | -0.4 °C | 0 °C | -0.4 °C
4 | Cc1ccc(Nc2nsnc(Nc3cccc(C(N)=O)c3)c2=O)cc1O [Compound 1, 3-({5-[(3-Hydroxy-4-methylphenyl)amino]-4-oxo-4H-1,2,6-thiadiazin-3-yl}amino)benzamide] | -0.4 °C | 0.2 °C | 0.1 °C | 0 °C
5 | Cc1ccc(Nc2nsnc(Nc3ccc(C(N)=O)cc3)c2=O)cc1O [Compound 2, 4-({5-[(3-Hydroxy-4-methylphenyl)amino]-4-oxo-4H-1,2,6-thiadiazin-3-yl}amino)benzamide] | -0.7 °C | 2.1 °C | -0.1 °C | 3.7 °C
